The results in this text go back to patent US8765798B2, “Peptide derivatives with therapeutic activity” (Flamma S.p.A., priority 2006, dated 2014).

SMILES strings stand for the structures.

This experiment can be described thus: carbonyl-quenching activity on HNE in vitro (residual HNE by reversed-phase chromatography). Particulars: for reacted HNE (%) t = 1 h mean / reacted HNE (%) t = 3 h mean / reacted HNE (%) t = 2 h mean: HNE 50 μM, compound 1 mM, phosphate buffer 10 mM pH 7.4, 37° C.; for reacted HNE (%) t = 1 h mean: one hour incubation; for reacted HNE (%) t = 3 h mean: three hours incubation; for reacted HNE (%) t = 2 h mean: two hours incubation. Here is the method:
The pharmacological activity of the compounds of the invention was determined in vitro evaluating their carbonyl-quenching activity on 4-hydroxy nonenal (HNE), which is known to be involved in a number of pathologies.
The carbonyl-quenching activity of a selected series of compounds of the present invention was assessed in vitro, incubating HNE (50 μM) with the tested compounds (1 mM), in phosphate buffer (10 mM) pH 7.4 at 37° C. The activity was evaluated after one, two and three hours incubation, determining the residual content of HNE by reversed-phase chromatography as described by Aldini G et al. [Biochem Biophys Res Commun. 2002 Nov. 15; 298(5):699-706]. The carbonyl-quenching activity is expressed as the reacted HNE percent compared with the HNE content in the absence of the test compounds.

On to `NCCC(=O)N[C@@H](Cc1cnc[nH]1)C(=O)O` [Carnosine, reference compound], for which the “reacted HNE (%) t = 1 h mean” value is given as 17.39%, the “reacted HNE (%) t = 3 h mean” value is given as 43.59% and the “reacted HNE (%) t = 2 h mean” value amounted to 31.65%.

On to `C[C@H](N)CC(=O)N[C@H](Cc1c[nH]cn1)C(=O)O` [FL-926-A-002, (3S)-3-aminobutanoyl-D-histidine], for which the “reacted HNE (%) t = 1 h mean” value came to 6.568%, the “reacted HNE (%) t = 3 h mean” value came out at 21.58% and the “reacted HNE (%) t = 2 h mean” value was found to be 14.26%.

`N[C@@H](Cc1ccccc1)[C@@H](O)C(=O)N[C@H](Cc1c[nH]cn1)C(=O)O` [FL-926-A-005, (2R,3S)-3-amino-2-hydroxy-4-phenylbutanoyl-D-histidine]: the “reacted HNE (%) t = 1 h mean” value worked out at 15.2%, the “reacted HNE (%) t = 3 h mean” value was found to be 38.56% and the “reacted HNE (%) t = 2 h mean” value amounted to 27.75%.

With `N[C@@H](CC(=O)N[C@H](Cc1c[nH]cn1)C(=O)O)c1ccccc1` [FL-926-A-006, (3S)-3-amino-3-phenylpropanoyl-D-histidine], the “reacted HNE (%) t = 1 h mean” value stood at 29.3%, the “reacted HNE (%) t = 3 h mean” value turned out to be 65.8531% and the “reacted HNE (%) t = 2 h mean” value is given as 50.7209%. In addition, the “carbonyl-quenching activity compared with carnosine” value (after one hour incubation) is “almost twice as high”.
